How the values were obtained:
[1] = at 30° C.; cited from earlier work
human skin = assay: Mitigation of irritation by inorganic base (inventors' research); format: in vivo; conditions: as third salt (metal oxide)

In the case of `[O]=[Zn]` [zinc oxide], the water solubility [1] is given as 1.6 µg/mL and the mitigating irritation (human skin) is given as “ineffective”.

Reference: patent publication US10342749B2, “Antiperspirant compositions comprising alums” (Conopco, Inc., priority 2014, dated 2019)
